Reference: PubChem BioAssay (NCI)
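Exposure lasted 48 hours, with cells grown in 96-well plates and compounds tested at five concentrations. GI50 = concentration required for 50% inhibition of growth. At the TGI there is no net growth.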

How the values were obtained:
Assay in all cases: NCI anticancer screen, dose series, 48 h
[1] = test system: HT29 colon
[2] = test system: MCF7 breast
[3] = test system: ACHN renal
[4] = test system: A498 renal
[5] = test system: MOLT-4 leukemia
[6] = test system: HCT-15 colon
[7] = test system: COLO 205 colon
[8] = test system: SNB-19 CNS
[9] = test system: SK-MEL-5 melanoma
[10] = test system: HCC-2998 colon
[11] = test system: SK-OV-3 ovarian
[12] = test system: U251 CNS
[13] = test system: HL-60(TB) leukemia
[14] = test system: OVCAR-4 ovarian
[15] = test system: KM12 colon
[16] = test system: NCI-H460 lung
[17] = test system: A549 NSCLC
[18] = test system: UACC-257 melanoma
[19] = test system: BT-549 breast
[20] = test system: 786-0 renal
[21] = test system: SR leukemia
[22] = test system: OVCAR-8 ovarian
[23] = test system: EKVX NSCLC
[24] = test system: OVCAR-5 ovarian
[25] = test system: SK-MEL-28 melanoma
[26] = test system: SN12C renal
[27] = test system: UACC-62 melanoma
[28] = test system: MDA-MB-231 breast
[29] = test system: NCI-H226 lung
[30] = test system: SF-268 CNS
[31] = test system: T-47D breast
[32] = test system: NCI/ADR-RES ovarian
[33] = test system: LOX IMVI melanoma
[34] = test system: SK-MEL-2 melanoma
[35] = test system: DU-145 prostate
[36] = test system: HS 578T breast
[37] = test system: K-562 leukemia
[38] = test system: TK-10 renal
[39] = test system: HOP-62 NSCLC
[40] = test system: RPMI-8226 leukemia
[41] = test system: MALME-3M melanoma
[42] = test system: SW-620 colon
[43] = test system: UO-31 renal
[44] = test system: OVCAR-3 ovarian
[45] = test system: RXF 393 renal
[46] = test system: PC-3 prostate
[47] = test system: IGROV1 ovarian
[48] = test system: NCI-H522 lung
[49] = test system: SF-539 CNS
[50] = test system: MDA-MB-435
[51] = test system: M14 melanoma
[52] = test system: HCT-116 colon
[53] = test system: SF-295 CNS
[54] = test system: HOP-92 NSCLC
[55] = test system: NCI-H23 lung
[56] = test system: CCRF-CEM leukemia
[57] = test system: CAKI-1 renal
[58] = test system: SNB-75 CNS

## COC(=O)C1=C(C)NC(C)=C(C(=O)OC)C1c1ccccc1NO
[1]
  TGI: > 100 µM
[2]
  TGI: > 100 µM
[3]
  TGI: > 100 µM
[4]
  TGI: > 100 µM
[5]
  TGI: > 100 µM
[6]
  TGI: > 100 µM
[7]
  TGI: > 100 µM
[8]
  TGI: > 100 µM
[9]
  TGI: > 100 µM
[10]
  TGI: > 100 µM
[11]
  TGI: > 100 µM
[12]
  TGI: > 100 µM
[13]
  TGI: > 100 µM
[14]
  TGI: > 100 µM
[15]
  TGI: > 100 µM
[16]
  TGI: > 100 µM
[17]
  TGI: > 100 µM
[18]
  TGI: > 100 µM
[19]
  TGI: > 100 µM
[20]
  TGI: > 100 µM
[21]
  TGI: > 100 µM
[22]
  TGI: > 100 µM
[23]
  TGI: > 100 µM
[24]
  TGI: > 100 µM
[25]
  TGI: > 100 µM
[26]
  TGI: > 100 µM
[27]
  TGI: > 100 µM
[28]
  TGI: > 100 µM
[29]
  TGI: > 100 µM
[30]
  TGI: > 100 µM
[31]
  TGI: > 100 µM
[32]
  TGI: > 100 µM
[33]
  TGI: > 100 µM
[34]
  TGI: > 100 µM
[35]
  TGI: > 100 µM
[36]
  TGI: > 100 µM
[37]
  TGI: > 100 µM
[38]
  TGI: > 100 µM
[39]
  TGI: > 100 µM
[40]
  TGI: > 100 µM
[41]
  TGI: > 100 µM
[42]
  TGI: > 100 µM
[43]
  TGI: > 100 µM
[44]
  TGI: > 100 µM
[45]
  TGI: > 100 µM
[46]
  TGI: > 100 µM
[47]
  TGI: > 100 µM
[48]
  TGI: > 100 µM
[49]
  TGI: > 100 µM
[50]
  TGI: > 100 µM
[51]
  TGI: > 100 µM
[52]
  TGI: 48.2 µM
[53]
  TGI: > 100 µM
[54]
  TGI: > 100 µM
[55]
  TGI: > 100 µM
[56]
  TGI: > 100 µM
[57]
  TGI: > 100 µM

## N#Cc1ccc(OCc2nc(N)nc(N)c2-c2ccc(Cl)c(Cl)c2)cc1
[1]
  GI50: 0.592 µM
  TGI: > 100 µM
[2]
  GI50: 2.51 µM
  TGI: 34.5 µM
[3]
  GI50: 0.8 µM
  TGI: > 100 µM
[4]
  GI50: 1.43 µM
  TGI: 10.8 µM
[5]
  GI50: 3.7 µM
  TGI: 40.8 µM
[6]
  GI50: 0.525 µM
  TGI: > 100 µM
[7]
  GI50: 4.02 µM
  TGI: > 100 µM
[8]
  GI50: 2.79 µM
  TGI: > 100 µM
[9]
  GI50: 0.724 µM
  TGI: 13.2 µM
[10]
  GI50: 3.19 µM
  TGI: > 100 µM
[11]
  GI50: 4.72 µM
  TGI: > 100 µM
[12]
  GI50: 0.589 µM
  TGI: > 100 µM
[13]
  GI50: 0.554 µM
  TGI: 24.4 µM
[14]
  GI50: 6.43 µM
  TGI: > 100 µM
[15]
  GI50: 2.85 µM
  TGI: 84.5 µM
[16]
  GI50: 0.377 µM
  TGI: 14.1 µM
[17]
  GI50: 0.405 µM
  TGI: 15.8 µM
[18]
  GI50: 0.593 µM
  TGI: 37.2 µM
[19]
  GI50: 9.98 µM
  TGI: > 100 µM
[20]
  GI50: 1.48 µM
  TGI: > 100 µM
[21]
  GI50: 4.03 µM
  TGI: 66.2 µM
[22]
  GI50: 0.621 µM
  TGI: 54.5 µM
[24]
  GI50: 2.38 µM
  TGI: > 100 µM
[25]
  GI50: 4.39 µM
  TGI: 40.2 µM
[26]
  GI50: 2.79 µM
  TGI: > 100 µM
[27]
  GI50: 0.467 µM
  TGI: 87.7 µM
[28]
  GI50: 4.4 µM
  TGI: > 100 µM
[29]
  GI50: 4.86 µM
  TGI: > 100 µM
[30]
  GI50: 2.76 µM
  TGI: > 100 µM
[31]
  GI50: 9.64 µM
  TGI: > 100 µM
[32]
  GI50: 1.55 µM
  TGI: > 100 µM
[33]
  GI50: 0.424 µM
  TGI: > 100 µM
[34]
  GI50: 3.55 µM
  TGI: 22 µM
[35]
  GI50: 3.6 µM
  TGI: > 100 µM
[36]
  GI50: 2.65 µM
  TGI: 41.3 µM
[37]
  GI50: 0.359 µM
  TGI: > 100 µM
[39]
  GI50: 5.21 µM
  TGI: > 100 µM
[40]
  GI50: 5.42 µM
  TGI: > 100 µM
[41]
  GI50: 23.5 µM
  TGI: 84.8 µM
[42]
  GI50: 0.484 µM
  TGI: > 100 µM
[43]
  GI50: 3.79 µM
  TGI: > 100 µM
[44]
  GI50: 5.24 µM
  TGI: 38.2 µM
[45]
  GI50: 0.597 µM
  TGI: 30 µM
[46]
  GI50: 0.613 µM
  TGI: > 100 µM
[47]
  GI50: 1.73 µM
  TGI: > 100 µM
[58]
  GI50: 2.74 µM
  TGI: 29.1 µM
[48]
  GI50: 2.97 µM
  TGI: 19.9 µM
[49]
  GI50: 0.802 µM
  TGI: 37.5 µM
[50]
  GI50: 0.629 µM
  TGI: > 100 µM
[51]
  GI50: 0.741 µM
  TGI: > 100 µM
[52]
  GI50: 0.552 µM
  TGI: > 100 µM
[53]
  GI50: 0.725 µM
  TGI: > 100 µM
[54]
  GI50: 4.6 µM
  TGI: > 100 µM
[56]
  GI50: 2.67 µM
  TGI: > 100 µM
[57]
  GI50: 3.09 µM
  TGI: > 100 µM
